The test system of assay [1] is Pseudomonas aeruginosa strain TS88 (clinical isolate). The experiment in a line: Antimicrobial activity, MIC by broth microdilution. Format: cell-based. To be noted: 18 hours. The text has this: (§1) Test 3: Evaluation of Antimicrobial Activity For minimum inhibitory concentration (MIC) measurement, the following broth microdilution method was applied as adapted from the standard procedure recommended by the CLSI (Clinical and Laboratory Standards Institute). The bacteria used were Pseudomonas aeruginosa strain TS88 (clinical isolate), E. coli strain ATCC25922, and Klebsiella pneumoniae strain ATCC13883. After culture overnight on a heart infusion agar medium, the cells of a test bacterium were scraped off and suspended to give a turbidity of level 0.5 on the McFarland scale; the suspension was then diluted 10 fold to prepare an inoculum solution. A 0.005 mL aliquot of the inoculum solution was inoculated in a cation-adjusted Mueller-Hinton broth medium containing a test compound and cultured at 35° C. for 18 hours. A minimum drug concentration at which no cell growth was visible to the naked eye was designated as MIC.

Assay [2] deals with Klebsiella pneumoniae strain ATCC13883. The experiment in a line: Antimicrobial activity, MIC by broth microdilution. The class given is cell-based. As to conditions: Table 4, 35° C., 18 hours, read-out: Klebsiella pneumoniae ATCC 13883 strain MIC.
Description: as §1

A further assay relates to E. coli strain ATCC25922. The experiment in a line: Antimicrobial activity, MIC by broth microdilution. Format: cell-based. To be noted: Escherichia coli, Table 4, 35° C., 18 hours, read-out: E. coli ATCC 25922 strain MIC.
Description: as §1

The target in another assay is E. coli LpxC enzyme (Escherichia coli (strain K12), UniProt P0A725). The experiment in a line: Inhibitory activity on E. coli LpxC enzyme (fluorescamine assay). As to conditions: Table 4. The class given is biochemical. The procedure:
Test 2: Evaluation of the Inhibitory Activity on E. coli LpxC Enzyme
An inhibition curve was constructed for each test compound by performing the aforementioned reaction at varying concentrations of the test compound. From this inhibition curve, the concentration of the test compound at which the formation of the reaction product was suppressed by 50% was determined as the IC50 of the test compound, which was an index for the inhibitory activity on E. coli LpxC enzyme.

Assay [3] has as its target Pseudomonas aeruginosa LpxC enzyme (Pseudomonas aeruginosa (strain ATCC 15692 / DSM 22644 / CIP 104116 / JCM 14847 / LMG 12228 / 1C / PRS 101 / PAO1), UniProt P47205). The assay can be described thus: biochemical. The class given is biochemical.
Setting [4] is: Table 4, 35° C., read-out: Pseudomonas aeruginosa TS88 strain MIC.
[5] abbreviates: Table 1, read-out: Pseudomonas aeruginosa LpxC IC50.
Setting [6] is: Table 1, 35° C., read-out: MIC Pseudomonas aeruginosa TS88 strain.

Converted amounts (≈) assume the structure as drawn. Where two headings read alike, the source gives them in different places. A value given as a limit tells only on which side of the number the result lay.

Chain of E. coli LpxC enzyme (P0A725 whole entry): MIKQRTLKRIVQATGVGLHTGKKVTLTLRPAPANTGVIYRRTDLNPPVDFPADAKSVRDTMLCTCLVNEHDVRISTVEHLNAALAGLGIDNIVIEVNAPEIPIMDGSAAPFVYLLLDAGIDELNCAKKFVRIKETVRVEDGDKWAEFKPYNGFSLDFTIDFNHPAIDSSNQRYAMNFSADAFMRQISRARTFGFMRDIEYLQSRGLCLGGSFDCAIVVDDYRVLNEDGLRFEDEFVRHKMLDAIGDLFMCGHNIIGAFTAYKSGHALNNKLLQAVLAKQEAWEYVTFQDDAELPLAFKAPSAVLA

With `CNC(=O)[C@@](C)(C(=O)NO)N(C)C(=O)c1ccc(C#Cc2ccc(CN3CCC(OC)CC3)cc2)cc1` [Compound 565, (2S)-N-hydroxy-2-[{[4-({4-[(4-methoxypiperidin-1-yl)methyl]phenyl}ethynyl)phenyl]carbonyl}(methyl)amino]-N′,2-dimethylpropanediamide], the values for the MIC (in assay [1] (setting [4]); in assay [2]; in the assay on E. coli strain ATCC25922) were 1 µg/mL (≈ 1.97 µM), 2 µg/mL (≈ 3.95 µM) and 0.5 µg/mL (≈ 0.987 µM), respectively.
Molecule `CNC(=O)C(C(=O)NO)N(C)C(=O)c1ccc(C#CC#CC2CC2)cc1` (centres unmarked) [Compound 507, 2-({[4-(4-Cyclopropylbuta-1,3-diyn-1-yl)phenyl]carbonyl}(methyl)amino)-N-hydroxy-N′-methylpropanediamide] showed an IC50 at E. coli LpxC enzyme of 12 nM. The MIC in assay [1] (setting [4]) was determined as 0.25 µg/mL (≈ 0.707 µM); in assay [2] it was 1 µg/mL (≈ 2.83 µM); in the assay with E. coli strain ATCC25922 it was 0.125 µg/mL (≈ 0.354 µM).
For `CNC(=O)[C@@](C)(C(=O)NO)N(C)C(=O)c1ccc(C#Cc2ccc(CN3CCOCC3)cc2)cc1` [Compound 561, (2S)-N-hydroxy-N′,2-dimethyl-2-{methyl[(4-{[4-(morpholin-4-ylmethyl)phenyl]ethynyl}phenyl)carbonyl]amino}propanediamide] the same measures were 30 nM, 0.5 µg/mL (≈ 1.04 µM), 0.5 µg/mL (≈ 1.04 µM) and 0.125 µg/mL (≈ 0.261 µM).
As for `CNC(=O)[C@@](C)(C(=O)NO)N(C)C(=O)c1ccc(C#Cc2ccc(CNC3CC3)cc2)cc1` [Compound 553, (2S)-2-[{[4-({4-[(cyclopropylamino)methyl]phenyl}ethynyl)phenyl]carbonyl}(methyl)amino]-N-hydroxy-N′,2-dimethylpropanediamide], the MIC in assay [1] (setting [4]) stood at 0.5 µg/mL (≈ 1.11 µM); in assay [2] it was 0.5 µg/mL (≈ 1.11 µM); in the assay with E. coli strain ATCC25922, 0.25 µg/mL (≈ 0.557 µM).
`CNC(=O)[C@@](C)(C(=O)NO)N(C)C(=O)c1ccc(C#Cc2ccc(CN3CC(OC)C3)cc2)cc1` [Compound 567, (2S)-N-hydroxy-2-[{[4-({4-[(3-methoxyazetidin-1-yl)methyl]phenyl}ethynyl)phenyl]carbonyl}(methyl)amino]-N′,2-dimethylpropanediamide] yielded an IC50 on E. coli LpxC enzyme of 177 nM. Also, the minimal inhibitory concentration (MIC) is 1 µg/mL (≈ 2.09 µM) in assay [1] (setting [4]), 2 µg/mL (≈ 4.18 µM) in assay [2] and 0.5 µg/mL (≈ 1.04 µM) in the assay on E. coli strain ATCC25922.
Take `CNC(=O)[C@@](C)(C(=O)NO)N(C)C(=O)c1ccc(C#Cc2ccc(CN3CC(OCCF)C3)cc2)cc1` [Compound 559, (2S)-2-[({4-[(4-{[3-(2-fluoroethoxy)azetidin-1-yl]methyl}phenyl)ethynyl]phenyl}carbonyl)(methyl)amino]-N-hydroxy-N′,2-dimethylpropanediamide]: the MIC was found to be 1 µg/mL (≈ 1.96 µM) in assay [1] (setting [4]), 1 µg/mL (≈ 1.96 µM) in assay [2] and 0.25 µg/mL (≈ 0.49 µM) with E. coli strain ATCC25922.
As for `CNC(=O)[C@@](C)(C(=O)NO)N(C)C(=O)c1ccc(C#Cc2ccc(CNCc3ccco3)cc2)cc1` [Compound 417, (2S)-2-[({4-[(4-{[(furan-2-ylmethyl)amino]methyl}phenyl)ethynyl]phenyl}carbonyl)(methyl)amino]-N-hydroxy-N′,2-dimethylpropanediamide], the MIC stood at 0.5 µg/mL (≈ 1.02 µM) in assay [1] (setting [4]), 0.25 µg/mL (≈ 0.512 µM) in assay [2] and 0.0625 µg/mL (≈ 0.128 µM) in the assay on E. coli strain ATCC25922.
On to `CNC(=O)[C@@](C)(C(=O)NO)N(C)C(=O)c1ccc(C#Cc2ccc(CN3CC(C)(OC)C3)cc2)cc1` [Compound 558, (2S)-N-hydroxy-2-[{[4-({4-[(3-methoxy-3-methylazetidin-1-yl)methyl]phenyl}ethynyl)phenyl]carbonyl}(methyl)amino]-N′,2-dimethylpropanediamide], for which, at E. coli LpxC enzyme, the IC50 is 235 nM. The MIC in assay [1] (setting [4]) was 1 µg/mL (≈ 2.03 µM); in assay [2] it was 2 µg/mL (≈ 4.06 µM); in the assay with E. coli strain ATCC25922 it was 0.5 µg/mL (≈ 1.02 µM).
Regarding `CNC(=O)[C@@](C)(C(=O)NO)N(C)C(=O)c1ccc(-c2ccc(SC)cc2)cc1` [Compound 406, (2S)-N-hydroxy-N′,2-dimethyl-2-(methyl {[4′-(methylsulfanyl)biphenyl-4-yl]carbonyl}amino)propanediamide], the figures for the minimum inhibitory concentration (MIC) (in assay [1] (setting [4]); in assay [2]; in the assay on E. coli strain ATCC25922) were 0.5 µg/mL (≈ 1.25 µM), 0.5 µg/mL (≈ 1.25 µM) and 0.125 µg/mL (≈ 0.311 µM), respectively.
In the case of `CNC(=O)[C@@](C)(C(=O)NO)N(C)C(=O)c1ccc(C#Cc2ccc(C3(NC)CC3)cc2)cc1` [Compound 435, (2S)-N-hydroxy-N′,2-dimethyl-2-(methyl {[4-({4-[1-(methylamino)cyclopropyl]phenyl}ethynyl)phenyl]carbonyl}amino)propanediamide], the MIC in assay [1] (setting [4]) stood at 1 µg/mL (≈ 2.23 µM); in assay [2] it was 2 µg/mL (≈ 4.46 µM); with E. coli strain ATCC25922 it was 1 µg/mL (≈ 2.23 µM).
In the case of `CNC(=O)[C@@](C)(C(=O)NO)N(C)C(=O)c1ccc(C#Cc2ccc(CN3CC4(COC4)C3)cc2)cc1` [Compound 416, (2S)-N-hydroxy-N′,2-dimethyl-2-{methyl[(4-{[4-(2-oxa-6-azaspiro[3.3]hept-6-ylmethyl)phenyl]ethynyl}phenyl)carbonyl]amino}propanediamide], the MIC in assay [1] (setting [4]) was determined as 1 µg/mL (≈ 2.04 µM); in assay [2], 2 µg/mL (≈ 4.08 µM); with E. coli strain ATCC25922, 0.5 µg/mL (≈ 1.02 µM).
With `CCOC1CN(Cc2ccc(C#Cc3ccc(C(=O)N(C)C(C(=O)NC)C(=O)NO)cc3)cc2F)C1` (centres unmarked) [Compound 563, 2-[{[4-({4-[(3-ethoxyazetidin-1-yl)methyl]-3-fluorophenyl}ethynyl)phenyl]carbonyl}(methyl)amino]-N-hydroxy-N′-methylpropanediamide], the IC50 in assay [3] (class symbols A/B/C by IC50, Table 3, read-out: Enzyme inhibitory activity (inhibitory activity on Pseudomonas aeruginosa LpxC enzyme)) is less than 10 nM. In addition, the MIC in assay [1] (setting [4]) is 1 µg/mL (≈ 2.01 µM); in assay [2] it was 4 µg/mL (≈ 8.06 µM); in the assay on E. coli strain ATCC25922, 1 µg/mL (≈ 2.01 µM).
Turning to `CNC(=O)C(C(=O)NO)N(C)C(=O)c1ccc(-c2ccc(CF)cc2)cc1` (centres unmarked) [Compound 237, 2-[{[4′-(fluoromethyl)biphenyl-4-yl]carbonyl}(methyl)amino]-N-hydroxy-N′-methylpropanediamide], the IC50 in assay [3] (setting [5]) is 4.5 nM. Also, the MIC in assay [1] (setting [6]) stood at 0.5 µg/mL (≈ 1.34 µM).
On to `CNC(=O)C(C(=O)NO)N(C)C(=O)c1ccc(-c2ccc(COC)cc2)cc1` (centres unmarked) [Compound 4, N-hydroxy-2-[{[4′-(methoxymethyl)biphenyl-4-yl]carbonyl}(methyl)amino]-N′-methylpropanediamide], for which the IC50 in assay [3] (setting [5]) was 6.1 nM. In addition, the minimum inhibitory concentration (MIC) in assay [1] (setting [6]) came out at 1 µg/mL (≈ 2.59 µM).
Turning to `CNC(=O)C(C(=O)NO)N(C)C(=O)c1ccc(-c2ccc3c(c2)OCO3)cc1` (centres unmarked) [Compound 8, 2-{[4-(1,3-benzodioxol-5-yl)benzoyl](methyl)amino}-N-hydroxy-N′-methylpropanediamide], the IC50 in assay [3] (setting [5]) turned out to be 5 nM. Further, in assay [1] (setting [6]), the MIC was found to be 0.5 µg/mL (≈ 1.3 µM).
The matching figures for `CNC(=O)C(C(=O)NO)N(C)C(=O)c1ccc(-c2ccc(NCCCCCN3CCOCC3)cc2)cc1` (centres unmarked) [Compound 58, N-hydroxy-N′-methyl-2-{methyl[(4′-{[5-(morpholin-4-yl)pentyl]amino}biphenyl-4-yl)carbonyl]amino}propanediamide]: 8.3 nM and 4 µg/mL (≈ 7.82 µM).
Take `CNC(=O)C(C(=O)NO)N(C)C(=O)c1ccc(-c2ccc(C#CCOC)cc2)cc1` (centres unmarked) [Compound 405, N-hydroxy-2-[{[4′-(3-methoxyprop-1-yn-1-yl)biphenyl-4-yl]carbonyl}(methyl)amino]-N′-methylpropanediamide]: the IC50 is 2.9 nM in assay [3] (Table 4, read-out: Pseudomonas aeruginosa LpxC IC50) and less than 10 nM in assay [3] (inhibitory activity on Pseudomonas aeruginosa LpxC enzyme, class symbols A/B/C, read-out: Enzyme inhibitory activity). Moreover, the MIC is 0.5 µg/mL (≈ 1.22 µM) in assay [1] (setting [4]), 4 µg/mL (≈ 9.77 µM) in assay [2] and 0.5 µg/mL (≈ 1.22 µM) in the assay with E. coli strain ATCC25922.
With `CNC(=O)C(C(=O)NO)N(C)C(=O)c1ccc(-c2ccc(C(F)(F)F)cc2)cc1` (centres unmarked) [Compound 56, N-hydroxy-N′-methyl-2-(methyl {[4′-(trifluoromethyl)biphenyl-4-yl]carbonyl}amino)propanediamide], in assay [3] (setting [5]), the IC50 was determined as 6.7 nM. In assay [1] (setting [6]), the MIC was found to be 1 µg/mL (≈ 2.44 µM).
The matching figures for `CNC(=O)C(C(=O)NO)N(C)C(=O)c1ccc(-c2ccc(OCCO)cc2)cc1` (centres unmarked) [Compound 153, N-hydroxy-2-[{[4′-(2-hydroxyethoxy)biphenyl-4-yl]carbonyl}(methyl)amino]-N′-methylpropanediamide]: 5.7 nM and 2 µg/mL (≈ 4.98 µM).
The matching figures for `CNC(=O)C(C(=O)NO)N(C)C(=O)c1ccc(-c2ccc(OC(F)(F)F)cc2)cc1` (centres unmarked) [Compound 52, N-hydroxy-N′-methyl-2-(methyl {[4′-(trifluoromethoxy)biphenyl-4-yl]carbonyl}amino)propanediamide]: 4.6 nM and 1 µg/mL (≈ 2.35 µM).
As for `CNC(=O)C(C(=O)NO)N(C)C(=O)c1ccc(-c2ccc3c(c2)OC(OC)O3)cc1` (centres unmarked) [Compound 94, N-hydroxy-2-{[4-(2-methoxy-1,3-benzodioxol-5-yl)benzoyl](methyl)amino}-N′-methylpropanediamide], the IC50 in assay [3] (setting [5]) amounted to 5.6 nM. Further, in assay [1] (setting [6]), the minimal inhibitory concentration (MIC) was found to be 2 µg/mL (≈ 4.81 µM).

(Values after patent US9073821B2, “Hydroxamic acid derivative” (priority 2010, dated 2015).)
